The test system of one data set is ob/ob mice. Description: In vivo study in ob/ob mice, biochemical analysis of blood. The conditions noted are these: orally, 10 mg/kg/d, 15 days. The method, then: Animal studies were carried out in accordance with Directive 2010/63/EU for experimentation on animals. The handling of the animals and the experimental protocols were approved by the Animal Experimentation Ethics Committee of the University of Valencia (Protocol No. A1469445706311). Six-week-old male ob/ob mice (C57BL/6.Cg-Lepob/J) were supplied by Charles River Laboratories International (Wilmington, MA). Blood samples were collected from mice fasted for 6 hours to determine basal blood glucose levels. The animals, randomly divided into two groups (N ≈ 10-11 per group), were treated daily with vehicle (1% hydroxyethyl cellulose, Sigma-Aldrich) or with tetrahydroquinoline 5a at 10 mg/kg/day, for 15 days orally. After 15 days of treatment, and 6 h of fasting, the mice were anesthetized by inhalation of isoflurane and blood samples were collected in tubes with heparin or EDTA by intracardiac puncture. Plasma samples were obtained and stored at -80°C. Liver and epididymal white adipose tissue were removed and part of both organs were quickly frozen in liquid N2 for qPCR studies.
Plasma levels of total cholesterol and HDL-cholesterol (HDL-c) were determined by enzymatic processes using commercial kits: LabAssay™ Cholesterol (Wako Pure Chemicals Industries, Cape Charles, VA) and Mouse HDL-Cholesterol Assay Kit (Crystal Chem, Elk Grove Village, IL), respectively. Non-HDL cholesterol levels were calculated (total cholesterol - HDL-c). Fasting blood glucose levels were measured using a glucometer (Contour Next, Bayer HealthCare Pharmaceuticals LLC, Berlin, Germany), while insulin levels were determined using the commercial Mouse Insulin ELISA kit (Mercodia, Uppsala, Sweden). The HOMA-IR index was calculated using the following formula: fasting blood glucose (mmol/L) * fasting insulinemia (µU/mL) / 22.5.
Tetrahydroquinoline 5a administered for 15 days (orally, 10 mg/kg/d) to an obese and diabetic mouse model (ob/ob), improved lipid and carbohydrate parameters. Indeed, 5a decreased total cholesterol and non-HDL cholesterol levels, as well as insulin levels and the HOMA-IR index in the blood of oblob mice, compared to vehicle-treated mice (Figures 4A-4D).

For a further data set, the system named is THP-1 cells. The experiment in a line: Cytotoxicity, Annexin V-FITC/PI dual staining by flow cytometry. It is filed as cell-based, human. The conditions noted are these: 30 and 100 µM, 24 h. The method, then:
The cytotoxicity of tetrahydroquinoline and quinoline esters 5a, 5b, 8a and 8b was evaluated at 30 and 100 µM by flow cytometry to assess cell survival using an Annexin V-FITC/PI dual staining assay. THP-1 cells (3 × 10^4 cells per well) were seeded in 24-well plates and allowed to grow overnight. The medium was then replaced and incubations with the different compounds or DMSO were performed during 24 h. Then, all cells were processed with the Annexin V-assay kit (ANXCFK7, Immunostep, Salamanca, Spain) according to the manufacturer's instruction. A Becton Dickinson LSR Fortessa cytometer (BD Biosciences, Franklin Lakes, NJ, USA) was used for samples, and cell analysis were performed using FACSDiva X20 software.
The potential cytotoxic effects of the compounds of the invention 5a, 5b, 8a, and 8b on the human macrophage cell line THP-1 were evaluated by flow cytometry to assess cell survival using an Annexin V-FITC/PI dual staining assay. The THP-1 cells were treated with concentrations of 30 and 100 µM for 24 h.
On the technique in general: A flow cytometer gives signals particle by particle.

The test system of a further data set is NF-κB-IL8P-Luc+. Description: NF-κB-IL8P transactivation assay (TNFα-stimulated L929sA cells). It is filed as cell-based, mouse. The conditions noted are these: 10 µM, 1 h before TNF (2000 IU/ml), total induction time 6 h; compared to GW7647. Here is the method:
L929sA mouse fibroblasts were stably transfected using the calcium phosphate precipitation protocol, as described previously with p1481.IL8P-Luc+ plasmid construct. The indicated induction was performed at least in triplicates. All conditions were solvent-controlled. Subsequently, the cells were washed with PBS and lysed using TROPIX lysis buffer. Cellular luciferase levels were normalised to those of β-galactosidase (TROPIX, Bedford, MA, USA).
PPARs play crucial roles in controlling inflammatory responses. NF-κB is a transcription factor that plays a pivotal role in the expression of multiple genes involved in the immune and inflammatory responses. To study the potential anti-inflammatory effects of the tetrahydroquinolines and quinolines of the invention, the NF-κB-dependent physiological human IL-8 promoter construct, p1481.IL8P-Luc+, which is stably integrated into L929sA cells, was tested. After transfection, cells were treated at 10 µM with 5a, 5b, 8a, or 8b prior to TNFa stimulation. […] Given the significant decrease in NF-κB-IL8P-Luc+ reporter gene activity observed after treatment with the 2- or 3-prenylated tetrahydroquinolines 5a and 5b and the 3-prenylated quinoline 8b, their potential anti-inflammatory effects at the transcriptional level for other inflammatory mediators was evaluated. To achieve this, the L929sA WT cells were treated with 5a, 5b and 8b at 10 µM for 1 h, followed by TNFa stimulation for a total induction time of 6 h. The expression of inflammatory genes was evaluated by RT-qPCR.

The target in a further data set is T1, hPPARβ/δ (Homo sapiens, UniProt Q03181).
T1 sequence (Q03181 171-441): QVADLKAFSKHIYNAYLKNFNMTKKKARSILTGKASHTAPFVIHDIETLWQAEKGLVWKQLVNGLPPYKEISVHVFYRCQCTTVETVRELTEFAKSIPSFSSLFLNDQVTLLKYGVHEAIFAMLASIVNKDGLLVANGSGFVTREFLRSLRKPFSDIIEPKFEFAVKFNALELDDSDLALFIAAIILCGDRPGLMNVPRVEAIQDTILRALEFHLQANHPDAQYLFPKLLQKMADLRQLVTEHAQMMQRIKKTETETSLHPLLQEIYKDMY
The experiment in a line: PPAR transactivation assay, human chimeric PPAR/Gal4 reporter luciferase system in Cos-7 cells (PPARβ/δ). It is filed as cell-based. Here is the method:
Transfections were stopped after 16 h by adding DMEM/10% FCS. Cells were detached with trypsin, re-seeded in 96-well plates for 6 h in DMEM/10% FCS, and incubated for 24 h in DMEM/0.2% FCS with increasing concentrations of the test compounds or vehicle (DMSO, 0.1% final concentration). At the end of the experiment, cells were washed once with ice-cold PBS, lysed, and luciferase and β-galactosidase activities were measured. Luciferase activity was normalised to that of the internal control, β-galactosidase. All transfection experiments were performed at least five times.
EC50 values against human PPARα/Gal4, PPARβ/δ/Gal4 and PPARγ/Gal4 receptors.

Where [1] appears, read: compared to vehicle-treated mice.

SMILES strings stand for the structures.

The term EC50 denotes the concentration needed to bring the measured effect to its halfway point. A high value points to a need for much substance.

With `CCOC(=O)CC/C(C)=C/CCC1CCc2cc(OCc3ccccc3)ccc2N1C` (stereo not shown) [Compound 5a, Ethyl (E)-7-(6-(benzyloxy)-1-methyl-1,2,3,4-tetrahydroquinolin-2-yl)-4-methylhept-4-enoate], in the data set on ob/ob mice, the “levels of hepatic transaminase ALT” value is “did not increase” and the “levels of hepatic transaminase AST” value was “did not increase”. Further, the HOMA-IR index result in the data set with ob/ob mice (compared to vehicle, calculated from fasting glucose and insulin) is on record as “decreased”. In addition, in the data set on ob/ob mice (compared to vehicle, total cholesterol - HDL-c), the non-HDL cholesterol levels result was “decreased”. For the same molecule, in the data set with ob/ob mice (setting [1]), the insulin levels entry is “decreased” and the total cholesterol levels result is “decreased”. In addition, the “cytotoxic effects (cell survival)” value with THP-1 cells is listed as “No cytotoxic effects were observed”. Moreover, the “transactivation of the TNFα-dependent NF-κB-driven reporter” value with NF-κB-IL8P-Luc+ is listed as “can repress the transactivation of the TNFα-dependent NF-κB-driven reporter”. In addition, the Emax at 10 µM at hPPARβ/δ (COS-7, read-out: Efficacy (%) at 10 µmol/L PPARβ/δ) turned out to be 60%. The molecule also gave an EC50 on hPPARβ/δ (human PPARβ/δ/Gal4, Cos-7 cells, concentration range 0.001-10 µmol/L, NA: not active) of 2600 nM.

The record behind these values is EP4635565A1, “PRENYLATED TETRAHYDROQUINOLINES AND QUINOLINES WITH PPAR AGONIST ACTIVITY” (Fundación para la Investigación del Hospital Clínico de la …, priority 2024, dated 2025).
